8 compounds from patent publication US11932609B1 (priority 2023, dated 2024) can be followed below.

`CCOC(=O)C1=C(C)NC(Nc2ccccc2)=NC1c1ccc(F)cc1` (centres unmarked) [DHPM-KNV1, Ethyl 4-(4-fluorophenyl)-6-methyl-2-(phenylamino)-1,4-dihydropyrimidine-5-carboxylate]: the melting point (usually the temperature of the solid-liquid transition) was 92 to 93 °C.

In turn, `CCOC(=O)C1=C(C)NC(Nc2ccc(Br)cc2)=NC1c1ccc(F)cc1` (centres unmarked) [DHPM-KNV2, Ethyl 2-((4-bromophenyl)amino)-4-(4-fluorophenyl)-6-methyl-1,4-dihydropyrimidine-5-carboxylate] yielded a melting point of 120 to 121 °C.

As for `CCOC(=O)C1=C(C)NC(Nc2ccc(Cl)cc2)=NC1c1ccc(F)cc1` (centres unmarked) [DHPM-KNV3, Ethyl 2-((4-chlorophenyl)amino)-4-(4-fluorophenyl)-6-methyl-1,4-dihydropyrimidine-5-carboxylate], the melting point lay within 188 to 189 °C.

The compound `CCOC(=O)C1=C(C)NC(Nc2ccc(C(C)C)cc2)=NC1c1ccc(F)cc1` (centres unmarked) [DHPM-KNV4, Ethyl 4-(4-fluorophenyl)-2-((4-isopropylphenyl)amino)-6-methyl-1,4-dihydropyrimidine-5-carboxylate] had a melting point of 125 to 126 °C.

In turn, `CCOC(=O)C1=C(C)NC(Nc2ccc(Cl)c(C(F)(F)F)c2)=NC1c1ccc(F)cc1` (centres unmarked) [DHPM-KNV5, Ethyl 2-((4-chloro-3-(trifluoromethyl)phenyl)amino)-4-(4-fluorophenyl)-6-methyl-1,4-dihydropyrimidine-5-carboxylate] returned a melting point of 176 to 177 °C.

On to `CCOC(=O)C1=C(C)NC(Nc2ccc3ncsc3c2)=NC1c1ccc(F)cc1` (centres unmarked) [DHPM-KNV7, Ethyl 2-(benzo[d]thiazol-6-ylamino)-4-(4-fluorophenyl)-6-methyl-1,4-dihydropyrimidine-5-carboxylate], for which the melting point was 175 to 176 °C.

Compound `CCOC(=O)C1=C(C)NC(Nc2ccccc2I)=NC1c1ccc(F)cc1` (centres unmarked) [DHPM-KNV8, Ethyl 4-(4-fluorophenyl)-2-((2-iodophenyl)amino)-6-methyl-1,4-dihydropyrimidine-5-carboxylate] displayed a melting point of 229 to 230 °C.

In turn, `CCOC(=O)C1=C(C)NC(Nc2ccc(C(F)(F)F)cc2OC)=NC1c1ccc(F)cc1` (centres unmarked) [DHPM-KNV9, Ethyl 4-(4-fluorophenyl)-2-((2-methoxy-4-(trifluoromethyl)phenyl)amino)-6-methyl-1,4-dihydropyrimidine-5-carboxylate] registered a melting point of 213 to 214 °C.
